Measured values as given in US6642205B2, “Methods and compositions for reducing side effects in chemotherapeutic treatments” (Pro-Pharmaceuticals, Inc., priority 2000, dated 2003).

Assays:
[1] = Side effects (deaths) after single dose intravenous injection in healthy mice, 20 days observation; assay type: in vivo, male BDF1 mice; settings: for Deaths per group / Life span after treatment (except survived animals): single i.v.; for Deaths per group: six animals each; for Life span after treatment (except survived animals): one value per dead animal; for toxicity compared to Adriamycin: healthy mice, single i.v. dose
Description: (§1) Male BDF1 mice were used as the experimental animals for measuring side effects of therapeutic preparations. Mice were acclimated in the laboratory one week prior to experimentation. The animals were housed five per cage in a 12-hour light/dark cycle. The animals received filtered water and sterile rodent food ad libitum. The animals were observed daily and clinical signs were noted. Weight of the animals was in the range of 19-21 g at the day of treatment initiation. The mice were healthy, not previously used in other experimental procedures.

[2] = system: lymphocyte leukemia P-388; experiment: Antitumor effect on subcutaneously implanted lymphocyte leukemia P-388 in mice, single i.v. injection; assay type: in vivo, male BDF1 mice; settings: for Average weight gain/loss from day 1 to day 7 / Nonspecific deaths per group / Average survival time, excluding nonspecific deaths / Average survival time, including nonspecific deaths / average weight loss of an animal: single i.v.; for Nonspecific deaths per group / animals that lived longer than the duration of the study (20 days): six animals per group; for Average survival time, excluding nonspecific deaths / Average survival time, including nonspecific deaths: study duration 20 days; for toxicity compared to Adriamycin: tumor-bearing mice, nonspecific deaths
Experimental: “Nonspecific death” is death of a treated tumor-bearing animal if its day of death was statistically less (P≦0.05) than the corresponding day of death of a tumor-bearing animal in the untreated control group.
The response of subcutaneously implanted lymphocyte leukemia P-388 (Arthur D. Little Inc., Cambridge, Mass.) to treatment with a Galactomycin I, Galactomycin II, and Doxorubicin was evaluated in male BDF1 mice.
as §1, with “Mice” for “Male BDF1 mice were used as the experimental animals for measuring side effects of therapeutic preparations. Mice”
There were a total of twelve groups, 10 animals in two control groups (saline only), and six animals in each in 10 agent treatment groups. The groups were treated 24 hours after tumor implantation, as follows:
Tumor cells were implanted in a sub-cutaneous injection of one million cells per mouse and allowed to grow for 24 hours. After that, Adriamycin, Galactomycin I and Galactomycin II were administered as 0.7-10 mg/mL solutions by a single i.v. injection.
Study duration was twenty days after tumor implantation, or nineteen days after treatment initiation.

Compound	Average weight gain/loss from day 1 to day 7 ([2]; dose 7 mg/kg)	Nonspecific deaths per group ([2]; dose 7 mg/kg)	Average survival time, excluding nonspecific deaths ([2]; dose 7 mg/kg) [days]	Average survival time, including nonspecific deaths ([2]; dose 7 mg/kg) [days]	Average weight gain/loss from day 1 to day 7 ([2]; dose 14 mg/kg)	Average survival time, excluding nonspecific deaths ([2]; dose 14 mg/kg) [days]	Average survival time, including nonspecific deaths ([2]; dose 14 mg/kg) [days]	Deaths per group ([1]; dose 15 mg/kg)	Deaths per group ([1]; dose 20 mg/kg)	Deaths per group ([1]; dose 25 mg/kg)	Deaths per group ([1]; dose 30 mg/kg)	Deaths per group ([1]; dose 40 mg/kg)	Deaths per group ([1]; dose 80 mg/kg)	Deaths per group ([1]; dose 100 mg/kg)	toxicity compared to Adriamycin [1]	LD50 (estimated from Table 2 data) ([1]; single injection in mice) [mg/kg]	Nonspecific deaths per group ([2]; dose 14 mg/kg)	Average weight gain/loss from day 1 to day 7 ([2]; dose 40 mg/kg) [g]	Average survival time, excluding nonspecific deaths ([2]; dose 40 mg/kg) [days]	Average survival time, including nonspecific deaths ([2]; dose 40 mg/kg) [days]	other results
COc1cccc2c1C(=O)c1c(O)c3c(c(O)c1C2=O)C[C@@](O)(C(=O)CO)C[C@@H]3O[C@H]1C[C@H](N)[C@H](O)[C@H](C)O1 [Adriamycin, 14-hydroxydaunomycin, reference compound]	-0.5 g	0	15.5	15.5	-1.8 g	>19	> 15														Deaths per group ([1]; dose 21 mg/kg): Three; Deaths per group ([1]; dose 21 mg/kg, listed as Doxorubicin): 3; LD50 at 20 days ([1]; male, BDF1, mouse, in vivo, intravenous, 21 mg/kg, single injection in mice, read-out: LD50 (estimated from Table 2 data)): ~21 mg/kg; average weight loss of an animal ([2]; dose 14 mg/kg): 1.8 g; animals that lived longer than the duration of the study (20 days) ([2]; dose 14 mg/kg): two
COc1cccc2c1C(=O)c1c(O)c3c(c(O)c1C2=O)CC(O)(C(=O)CO)CC3OC1CC(NCC(O)C(O)C(O)C(O)COC2OC(CO)C(O)C(O)C2O)C(O)C(C)O1 [Galactomycin I, N-[α-D-galactopyranosyl-(1→6)-β-O-D-sorbityl]doxorubicin]	+1.7 g	0	11.7	11.7	+2.3 g	12.2	12.2	0	0	0	0	1	6	6	significantly less toxic	50 to 60	0	-0.9	>18	> 16	Deaths per group ([1]; dose 10 mg/kg): 0; Life span after treatment (except survived animals) ([1]; dose 40 mg/kg): 2 days; Average weight gain/loss from day 1 to day 7 ([2]; dose 20 mg/kg): -0.8 g; Nonspecific deaths per group ([2]; dose 20 mg/kg): 0; Average survival time, excluding nonspecific deaths ([2]; dose 20 mg/kg): 16.3 days; Average survival time, including nonspecific deaths ([2]; dose 20 mg/kg): 16.3 days; average weight loss of an animal ([2]; dose 40 mg/kg): 0.9 g; animals that lived longer than the duration of the study (20 days) ([2]; dose 40 mg/kg): two; toxicity compared to Adriamycin [2]: significantly less toxic
Br.COc1cccc2c1C(=O)c1c(O)c3c(c(O)c1C2=O)CC(O)(C(=O)CO)CC3OC1CC(NCC(O)C(O)C(OC2OC(CO)C(O)C(O)C2O)C(O)CO)C(O)C(C)O1 [Galactomycin II, N-[β-D-galactopyranosyl-(1→4)-β-O-D-sorbityl]doxorubicin]	+4.3 g	0	11.7	11.7	+0.8 g	12.0	12.0	0	0	0	0	0	1	3	significantly less toxic	~100	0	-1.1	15.0	15.0	Deaths per group ([1]; dose 50 mg/kg): 0; Life span after treatment (except survived animals) ([1]; dose 80 mg/kg): 2 days; Nonspecific deaths per group ([2]; dose 40 mg/kg): 0; Average weight gain/loss from day 1 to day 7 ([2]; dose 80 mg/kg): -1.0 g; average weight loss of an animal ([2]; dose 80 mg/kg): 1.0 g; Average survival time, excluding nonspecific deaths ([2]; dose 80 mg/kg): >18 days; Average survival time, including nonspecific deaths ([2]; dose 80 mg/kg): > 16 days; animals that lived longer than the duration of the study (20 days) ([2]; dose 80 mg/kg): two; toxicity compared to Adriamycin [2]: significantly less toxic
